Experimental data taken from PubChem BioAssay (NCI).
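Cultured in 96-well plates, cells were exposed to test compound for 48 hours across five concentrations. Definition used: TGI = concentration required for complete inhibition of growth.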

Columns and labels:
Test in all cases: NCI-60 cell line screen, 48 h
[1] = tested on: M14 melanoma
[2] = tested on: HOP-92 NSCLC
[3] = tested on: SW-620 colon
[4] = tested on: HCT-15 colon
[5] = tested on: HCT-116 colon
[6] = tested on: T-47D breast
[7] = tested on: UACC-62 melanoma
[8] = tested on: SN12C renal
[9] = tested on: K-562 leukemia

| Compound | TGI [1] [µM] | TGI [2] [µM] | TGI [3] [µM] | TGI [4] [µM] | TGI [5] [µM] | TGI [6] [µM] | TGI [7] [µM] | TGI [8] [µM] | TGI [9] [µM] |
| --- | --- | --- | --- | --- | --- | --- | --- | --- | --- |
| [O-]/[N+](=C\c1ccccc1OC(=S)S)c1ccc(Cl)cc1 | > 100 | 18.1 | > 100 | > 100 | 72.7 | 88.2 | > 100 | 97.8 | > 100 |
| O=c1cc(-c2cc(O)c(O)c(-c3c(O)cc4oc(-c5ccc(O)c(O)c5)cc(=O)c4c3O)c2)oc2cc(O)cc(O)c12 | > 25 | > 25 | > 25 | > 25 | > 25 | > 25 | > 25 | > 25 | > 25 |
| COc1c(O)c2c(=O)cc(OC)c3c4c(OC)cc(=O)c5c(O)c(OC)c6c(c(c1C(C(C)O)C6C(C)O)c23)c54 (stereo unspecified) | 2.34 | 1.49 | 4.33 | – | 6.18 | 8.33 | 3.54 | 3.17 | 1.66 |
| N#Cc1c(-c2ccccc2)cc(-c2ccc(Cl)cc2)[nH]c1=S | > 100 | > 100 | > 100 | > 100 | > 100 | > 100 | 92.1 | > 100 | > 100 |
| CCCCn1c(-c2ccc([N+](=O)[O-])cc2)cs/c1=N/N=C1\C(=O)Nc2ccc(Br)cc21 | 27.1 | 73.3 | > 100 | > 100 | 29.3 | 35.1 | 76.1 | 11.4 | 73.1 |
| COc1ccc(NC(=S)NC(=O)c2ccc3c(c2)Sc2ccccc2O3)c([N+](=O)[O-])c1 | > 100 | 44.9 | – | > 100 | > 100 | > 100 | > 100 | > 100 | > 100 |
| O=C(N/N=C/c1ccc(Br)cc1)N/N=C/c1ccc(Br)cc1 | 32.4 | – | 30.7 | > 100 | > 100 | > 100 | 41.2 | 17.4 | > 100 |
| COc1ccc(COCC[C@H](C)OC2OC(CO[Si](C)(C)C(C)(C)C)C(OC(=O)CCCN=[N+]=[N-])C(OC(=O)CCCN=[N+]=[N-])C2OC(=O)CCCN=[N+]=[N-])cc1 (stereo partly specified) | > 100 | > 100 | > 100 | 88.7 | > 100 | > 100 | > 100 | > 100 | – |
| C=Cc1ccccc1C1(O)C=CC(OC)(OC)C=C1 | 18.5 | – | 11.5 | 13.1 | 11.7 | > 100 | 17.6 | 24.4 | > 100 |
| COC(=O)C1(Cc2ccc3c(c2)CCC3)Cc2ccccc2C1 | > 100 | – | > 100 | > 100 | > 100 | > 100 | > 100 | > 100 | 51.3 |
| C\C(=N/N=C1/C(=C\N(C)C)C(=O)NC(=O)N1C)c1ccc(Cl)cc1 | > 100 | > 100 | > 100 | > 100 | > 100 | > 100 | > 100 | > 100 | > 100 |
| CCON1CC(C(=O)OC)=C(O)C1=O | > 100 | > 100 | > 100 | > 100 | > 100 | > 100 | > 100 | – | > 100 |
| CO[C@@H]1O[C@H](C(=O)c2ccccc2)[C@H]2OC(C)(C)O[C@@H]12 | > 100 | > 100 | > 100 | > 100 | > 100 | > 100 | > 100 | > 100 | > 100 |
| O=c1cc(-c2ccccc2)oc2c(-c3cc(Cl)cc4c(=O)cc(-c5ccccc5)oc34)cc(Cl)cc12 | > 100 | – | > 100 | > 100 | – | 75.6 | 48.4 | > 100 | > 100 |
| CCOC(=O)c1cn2c(n1)sc1cc(Cl)cc(Cl)c12 | > 100 | > 100 | > 100 | > 100 | > 100 | > 100 | > 100 | > 100 | > 100 |
| O=c1[nH]c(=O)n(C2CC(O)C(CO)O2)cc1OCc1ccccc1 (stereo unspecified) | > 100 | – | – | > 100 | > 100 | > 100 | > 100 | > 100 | > 100 |
| O=c1[nH]c(Nc2cccc(CO)c2)nc2nc[nH]c12 | > 100 | > 100 | > 100 | > 100 | > 100 | > 100 | > 100 | > 100 | > 100 |
| OCc1ccc2c(c1)CC1(Cc3ccc(/C=N/O)cc3C1)C2 (stereo unspecified) | 21.6 | 59.5 | > 100 | > 45.1 | > 100 | > 100 | > 56.1 | > 54.5 | – |
| Cc1cnc2c(c1)C(=O)C1=C(C2=O)C2OC(=O)CC2OC1(C)C (stereo unspecified) | 0.824 | 0.384 | 0.768 | 0.202 | 0.399 | 1.42 | 0.351 | 0.318 | – |
| O=C(Nc1noc(-c2ccccc2)n1)c1ccccc1CNc1noc(-c2ccccc2)n1 | > 100 | > 100 | > 100 | > 100 | > 100 | > 100 | > 100 | > 100 | > 100 |
| COc1cc2c(cc1Cc1c(F)cccc1Cl)nc(-c1c(F)cccc1Cl)n2Cc1c(F)cccc1Cl | > 100 | 37.6 | – | > 100 | > 100 | 59.5 | > 100 | > 100 | > 100 |
| C[C@H]1SC(c2ccc(Cl)cc2Cl)N(NC(=O)c2ccncc2)C1=O (stereo partly specified) | 69.9 | > 100 | – | > 100 | 60.4 | > 100 | > 100 | > 100 | > 100 |
| C1=C\SS/C=C\SS/1 | > 100 | 97.3 | > 100 | 34 | > 100 | > 100 | > 100 | > 100 | 85.2 |
| Nc1nn2c(=O)c3ccccc3nc2s1 | 93.8 | > 100 | 38.5 | > 100 | > 100 | > 100 | > 100 | > 100 | 88.7 |
